According to article PMC6364417, “Kinase inhibitor library screening identifies synergistic drug combinations effective in sensitive and resistant melanoma cells” (Journal of Experimental & Clinical Cancer Research : CR, 2019):

What was measured:
Assay in all cases: Kinase inhibitor library screening, PrestoBlue cell viability, 1 or 10 μM, 72 h
501Mel cells (parental) = details: 72 h; for viability at 1 µM / viability at 10 µM: Homo sapiens; for viability at 1 µM: read-out: cell viability, 501Mel Parental, 1μΜ; for viability at 10 µM: read-out: cell viability, 501Mel Parental, 10μΜ
Outline: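 Two concentrations of every kinase inhibitor were tested on each melanoma line and its resistant counterparts, and cell survival was quantified by PrestoBlue against untreated wells.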

[1] = tested on: 501Mel-GP cells (Dabrafenib-resistant); details: 72 h; for viability at 1 µM / viability at 10 µM: Homo sapiens; for viability at 1 µM: read-out: cell viability, 501Mel GP, 1μΜ; for viability at 10 µM: read-out: cell viability, 501Mel GP, 10μΜ
[2] = tested on: 501Mel-XP cells (Vemurafenib-resistant); details: 72 h; for viability at 1 µM / viability at 10 µM: Homo sapiens; for viability at 1 µM: read-out: cell viability, 501Mel XP, 1μΜ; for viability at 10 µM: read-out: cell viability, 501Mel XP, 10μΜ
A375 cells (parental) = details: for viability at 1 µM / viability at 10 µM: Homo sapiens, A-375, 72 h; for viability at 1 µM: read-out: cell viability, A375 Parental, 1μΜ; for viability at 10 µM: read-out: cell viability, A375 Parental, 10μΜ
[3] = tested on: A375-GP cells (Dabrafenib-resistant); details: for viability at 1 µM / viability at 10 µM: Homo sapiens, A-375, 72 h; for viability at 1 µM: read-out: cell viability, A375 GP, 1μΜ; for viability at 10 µM: read-out: cell viability, A375 GP, 10μΜ
[4] = tested on: A375-XP cells (Vemurafenib-resistant); details: for viability at 1 µM / viability at 10 µM: Homo sapiens, A-375, 72 h; for viability at 1 µM: read-out: cell viability, A375 XP, 1μΜ; for viability at 10 µM: read-out: cell viability, A375 XP, 10μΜ
IGR37 cells (parental) = details: for viability at 1 µM / viability at 10 µM: Homo sapiens, IGR-37, 72 h; for viability at 1 µM: read-out: cell viability, IGR37 Parental, 1μΜ; for viability at 10 µM: read-out: cell viability, IGR37 Parental, 10μΜ
[5] = tested on: IGR37-GP cells (Dabrafenib-resistant); details: for viability at 1 µM / viability at 10 µM: Homo sapiens, IGR-37, 72 h; for viability at 1 µM: read-out: cell viability, IGR37 GP, 1μΜ; for viability at 10 µM: read-out: cell viability, IGR37 GP, 10μΜ
[6] = tested on: IGR37-XP cells (Vemurafenib-resistant); details: for viability at 1 µM / viability at 10 µM: Homo sapiens, IGR-37, 72 h; for viability at 1 µM: read-out: cell viability, IGR37 XP, 1μΜ; for viability at 10 µM: read-out: cell viability, IGR37 XP, 10μΜ

| Compound | viability at 1 µM (501Mel cells (parental)) [%] | viability at 10 µM (501Mel cells (parental)) [%] | viability at 1 µM [1] [%] | viability at 10 µM [1] [%] | viability at 1 µM [2] [%] | viability at 10 µM [2] [%] | viability at 1 µM (A375 cells (parental)) [%] | viability at 10 µM (A375 cells (parental)) [%] | viability at 1 µM [3] [%] | viability at 10 µM [3] [%] | viability at 1 µM [4] [%] | viability at 10 µM [4] [%] | viability at 1 µM (IGR37 cells (parental)) [%] | viability at 10 µM (IGR37 cells (parental)) [%] | viability at 1 µM [5] [%] | viability at 10 µM [5] [%] | viability at 1 µM [6] [%] | viability at 10 µM [6] [%] | further results |
| --- | --- | --- | --- | --- | --- | --- | --- | --- | --- | --- | --- | --- | --- | --- | --- | --- | --- | --- | --- |
| COc1cc(N2CCC(N3CCN(C)CC3)CC2)ccc1Nc1ncc(Cl)c(Nc2ccccc2S(=O)(=O)C(C)C)n1 [TAE684 (NVP-TAE684)] |  |  |  |  |  |  |  |  |  |  |  |  |  |  |  |  |  |  | cell viability (kinase inhibitor library screening) (501Mel cells (parental); 501Mel Parental, 1μΜ): 103.2%; cell viability (kinase inhibitor library screening) (501Mel cells (parental); 501Mel Parental, 10μΜ): 0.331%; cell viability (kinase inhibitor library screening) ([1]; 501Mel GP, 1μΜ): 112.8%; cell viability (kinase inhibitor library screening) ([1]; 501Mel GP, 10μΜ): -0.0599%; cell viability (kinase inhibitor library screening) ([2]; 501Mel XP, 10μΜ): -0.231%; cell viability (kinase inhibitor library screening) (A375 cells (parental); A375 Parental, 10μΜ, 72 h): 8.8%; cell viability (kinase inhibitor library screening) (A375 cells (parental); A375 Parental, 1μΜ, 72 h): 76.3%; cell viability (kinase inhibitor library screening) ([3]; A375 GP, 1μΜ, 72 h): 61.5%; cell viability (kinase inhibitor library screening) ([3]; A375 GP, 10μΜ, 72 h): 8.3%; cell viability (kinase inhibitor library screening) ([4]; A375 XP, 1μΜ, 72 h): 72.8%; cell viability (kinase inhibitor library screening) ([4]; A375 XP, 10μΜ, 72 h): 13.8%; cell viability (kinase inhibitor library screening) (IGR37 cells (parental); IGR37 Parental, 1μΜ, 72 h): 99.2%; cell viability (kinase inhibitor library screening) (IGR37 cells (parental); IGR37 Parental, 10μΜ, 72 h): 4.4%; cell viability (kinase inhibitor library screening) ([5]; IGR37 GP, 1μΜ, 72 h): 84.1%; cell viability (kinase inhibitor library screening) ([5]; IGR37 GP, 10μΜ, 72 h): 1.7%; cell viability (kinase inhibitor library screening) ([6]; IGR37 XP, 1μΜ, 72 h): 67.8%; cell viability (kinase inhibitor library screening) ([6]; IGR37 XP, 10μΜ, 72 h): 1.0% |
| CC(C)(O)CC(=O)NCCn1ccc2ncnc(Nc3ccc(Oc4cccc(C(F)(F)F)c4)c(Cl)c3)c21 [TAK-285] | 101 | 99 | 104 | 87.8 | 94.8 | 83.2 | 102 | 90.5 | 103 | 83.1 | 108 | 87.7 | 108 | 99.7 | 90.8 | 86 | 87.2 | 48.4 |  |
| Cn1c(=O)c(F)c(Nc2ccc(I)cc2F)c2c(=O)n(C[C@@H](O)CO)cnc21 [TAK-733] | 54 | 57.9 | 90.9 | 72.7 | 80.5 | 58.7 | 18.6 | 18.6 | 17.6 | 16.5 | 10.7 | 2.7 | 36.5 | 44 | 65.6 | 58.6 | 52.9 | 22 |  |
| Nc1nc(N)c2nc(-c3cccc(O)c3)c(-c3cccc(O)c3)nc2n1 [TG100-115] |  |  |  |  |  |  |  |  |  |  |  |  |  |  |  |  |  |  | Cell viability in kinase inhibitor library screening, 501Mel Parental, 1μΜ (501Mel cells (parental); 501Mel Parental, 1μΜ, in %): 99.2; Cell viability in kinase inhibitor library screening, 501Mel Parental, 10μΜ (501Mel cells (parental); 501Mel Parental, 10μΜ, in %): 89.6; Cell viability in kinase inhibitor library screening, 501Mel GP, 1μΜ ([1]; 501Mel GP, 1μΜ, in %): 107.0; Cell viability in kinase inhibitor library screening, 501Mel GP, 10μΜ ([1]; 501Mel GP, 10μΜ, in %): 81.4; Cell viability in kinase inhibitor library screening, 501Mel XP, 1μΜ ([2]; 501Mel XP, 1μΜ, in %): 97.0; Cell viability in kinase inhibitor library screening, 501Mel XP, 10μΜ ([2]; 501Mel XP, 10μΜ, in %): 81.6; Cell viability in kinase inhibitor library screening, A375 Parental, 10μΜ (A375 cells (parental); A375 Parental, 10μΜ, 72 h): 88.3; Cell viability in kinase inhibitor library screening, A375 Parental, 1μΜ (A375 cells (parental); A375 Parental, 1μΜ, 72 h): 100.3; Cell viability in kinase inhibitor library screening, A375 GP, 1μΜ ([3]; A375 GP, 1μΜ, 72 h): 100.0; Cell viability in kinase inhibitor library screening, A375 GP, 10μΜ ([3]; A375 GP, 10μΜ, 72 h): 91.7; Cell viability in kinase inhibitor library screening, A375 XP, 1μΜ ([4]; A375 XP, 1μΜ, 72 h): 103.9; Cell viability in kinase inhibitor library screening, IGR37 Parental, 1μΜ (IGR37 cells (parental); IGR37 Parental, 1μΜ, 72 h, in %): 97.1; Cell viability in kinase inhibitor library screening, IGR37 Parental, 10μΜ (IGR37 cells (parental); IGR37 Parental, 10μΜ, 72 h, in %): 98.5; Cell viability in kinase inhibitor library screening, IGR37 GP, 10μΜ ([5]; IGR37 GP, 10μΜ, 72 h): 89.4%; Cell viability in kinase inhibitor library screening, IGR37 GP, 1μΜ ([5]; IGR37 GP, 1μΜ, 72 h, in %): 96.0; Cell viability in kinase inhibitor library screening, IGR37 XP, 10μΜ ([6]; IGR37 XP, 10μΜ, 72 h): 70.9% |
